{"source": "paper PMC3880629", "about": "(Journal of medicinal chemistry, 2013)", "key": {"CB1 wild-type receptor [1]": {"target": "T1, CB1 wild-type receptor (Homo sapiens, UniProt P21554)", "T1 sequence (P21554 whole entry)": "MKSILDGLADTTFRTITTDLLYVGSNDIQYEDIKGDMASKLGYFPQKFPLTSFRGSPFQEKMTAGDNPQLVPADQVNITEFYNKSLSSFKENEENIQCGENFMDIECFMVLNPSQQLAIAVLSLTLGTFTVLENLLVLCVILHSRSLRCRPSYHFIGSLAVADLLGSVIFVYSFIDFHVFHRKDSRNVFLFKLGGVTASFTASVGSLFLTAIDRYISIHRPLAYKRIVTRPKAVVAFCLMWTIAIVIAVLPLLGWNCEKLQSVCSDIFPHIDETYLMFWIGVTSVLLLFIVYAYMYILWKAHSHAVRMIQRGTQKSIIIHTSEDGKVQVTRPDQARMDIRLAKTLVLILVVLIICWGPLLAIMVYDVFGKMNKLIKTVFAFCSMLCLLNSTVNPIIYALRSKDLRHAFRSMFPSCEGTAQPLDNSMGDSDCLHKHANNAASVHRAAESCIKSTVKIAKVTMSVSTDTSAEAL", "conditions": "earlier report, given for comparison; cited from earlier work"}, "CB1 wild-type receptor [2]": {"target": "T1, CB1 wild-type receptor", "conditions": "cited from earlier work; for Effect on CP55,940-induced [35S]GTPγS binding in the presence of allosteric modulator: earlier report, given for comparison"}, "CB1 wild-type receptor [3]": {"target": "T1, CB1 wild-type receptor", "type": "binding", "conditions": "for α: binding cooperativity factor between CP55,940 and the tested allosteric modulator: HEK293 cell membranes expressing CB1, tracer [3H]CP55,940"}, "[4]": {"experiment": "Solubility in common organic solvents", "type": "physicochemical", "conditions": "acetone, ethyl acetate, tetrahydrofuran, dichloromethane, diethyl ether, ethanol and methanol"}, "CB1 wild-type receptor [5]": {"target": "T1, CB1 wild-type receptor", "experiment": "[35S]GTPγS binding assay", "type": "biochemical", "conditions": "for Concentration giving complete inhibition of CP55,940-induced [35S]GTPγS binding / Effect on CP55,940-induced [35S]GTPγS binding in the presence of allosteric modulator: HEK293 cell membranes expressing CB1"}}, "note": "Like-named read-outs stand apart in the source and are kept apart here."}
{"molecule": "CCCCCc1c(C(=O)NCCc2ccc(N3CCCCC3)cc2)[nH]c2ccc(Cl)cc12", "note": "[11a, 5-Chloro-3-pentyl-N-(4-(piperidin-1-yl)phenethyl)-1H-indole-2-carboxamide]", "values": [{"measurement": "α: binding cooperativity factor between CP55,940 and the tested allosteric modulator", "setting": "CB1 wild-type receptor [1]", "result": 17.6}, {"measurement": "Concentration at which G protein coupling was inhibited", "setting": "CB1 wild-type receptor [2]", "result": 3.2, "unit": "µM"}, {"measurement": "Effect on CP55,940-induced [35S]GTPγS binding in the presence of allosteric modulator", "setting": "CB1 wild-type receptor [2]", "result": "Antagonizing"}]}
{"molecule": "O=C(NCCc1ccc(N2CCCCC2)cc1)c1[nH]c2ccc(Cl)cc2c1-c1ccccc1", "note": "[11b, 5-Chloro-3-phenyl-N-(4-(piperidin-1-yl)phenethyl)-1H-indole-2-carboxamide]", "values": [{"measurement": "α: binding cooperativity factor between CP55,940 and the tested allosteric modulator", "setting": "CB1 wild-type receptor [3]", "result": 1.0}, {"measurement": "Solubility in organic solvents", "setting": "[4]", "result": "very poor solubility"}]}
{"molecule": "O=C(NCCc1ccc(N2CCCCC2)cc1)c1[nH]c2ccc(Cl)cc2c1Cc1ccccc1", "note": "[11c, 3-Benzyl-5-chloro-N-(4-(piperidin-1-yl)phenethyl)-1H-indole-2-carboxamide]", "values": [{"measurement": "α: binding cooperativity factor between CP55,940 and the tested allosteric modulator", "setting": "CB1 wild-type receptor [3]", "result": 11.37}, {"measurement": "Solubility in organic solvents", "setting": "[4]", "result": "very poor solubility"}]}
{"molecule": "O=C(NCCc1ccc(N2CCCCC2)cc1)c1[nH]c2ccc(Cl)cc2c1CC1CCCCC1", "note": "[11d, 5-Chloro-3-(cyclohexylmethyl)-N-(4-(piperidin-1-yl)phenethyl)-1H-indole-2-carboxamide]", "values": [{"measurement": "α: binding cooperativity factor between CP55,940 and the tested allosteric modulator", "setting": "CB1 wild-type receptor [3]", "result": 9.84}, {"measurement": "Solubility in organic solvents", "setting": "[4]", "result": "very poor solubility"}]}
{"molecule": "CCCCCCCc1c(C(=O)NCCc2ccc(N3CCCCC3)cc2)[nH]c2ccc(Cl)cc12", "note": "[11e]", "values": [{"measurement": "α: binding cooperativity factor between CP55,940 and the tested allosteric modulator", "setting": "CB1 wild-type receptor [3]", "result": 7.38}]}
{"molecule": "CCCCCCCCCc1c(C(=O)NCCc2ccc(N3CCCCC3)cc2)[nH]c2ccc(Cl)cc12", "note": "[11f]", "values": [{"measurement": "α: binding cooperativity factor between CP55,940 and the tested allosteric modulator", "setting": "CB1 wild-type receptor [3]", "result": 6.80}, {"measurement": "Concentration giving complete inhibition of CP55,940-induced [35S]GTPγS binding", "setting": "CB1 wild-type receptor [5]", "result": "at least 10 μM"}, {"measurement": "Effect on CP55,940-induced [35S]GTPγS binding in the presence of allosteric modulator", "setting": "CB1 wild-type receptor [5]", "result": "Antagonizing"}]}
{"molecule": "CCCCCc1c(C(=O)NCc2ccc(N3CCCCC3)cc2)[nH]c2ccc(Cl)cc12", "note": "[11g, 5-Chloro-3-pentyl-N-(4-(piperidin-1-yl)benzyl)-1H-indole-2-carboxamide]", "values": [{"measurement": "α: binding cooperativity factor between CP55,940 and the tested allosteric modulator", "setting": "CB1 wild-type receptor [3]", "result": 1.0}]}
{"molecule": "CCCCCc1c(C(=O)NCCc2ccc(N3CCOCC3)cc2)[nH]c2ccc(Cl)cc12", "note": "[11h, 5-Chloro-N-(4-morpholinophenethyl)-3-pentyl-1H-indole-2-carboxamide]", "values": [{"measurement": "α: binding cooperativity factor between CP55,940 and the tested allosteric modulator", "setting": "CB1 wild-type receptor [3]", "result": 10.0}, {"measurement": "Concentration giving complete inhibition of CP55,940-induced [35S]GTPγS binding", "setting": "CB1 wild-type receptor [5]", "result": "at least 10 μM"}, {"measurement": "Effect on CP55,940-induced [35S]GTPγS binding in the presence of allosteric modulator", "setting": "CB1 wild-type receptor [5]", "result": "Antagonizing"}]}
{"molecule": "CCCCCc1c(C(=O)NCCc2ccc(Oc3ccccc3)cc2)[nH]c2ccc(Cl)cc12", "note": "[11i, 5-Chloro-3-pentyl-1H-indole-2-carboxylic acid [2-(4-phenoxy-phenyl)-ethyl]-amide]", "values": [{"measurement": "α: binding cooperativity factor between CP55,940 and the tested allosteric modulator", "setting": "CB1 wild-type receptor [3]", "result": 13.15}]}
{"molecule": "CCCCCc1c(C(=O)NCCc2ccc(N(C)C)cc2)[nH]c2ccc(Cl)cc12", "note": "[11j, 5-Chloro-N-(4-(dimethylamino)phenethyl)-3-pentyl-1H-indole-2-carboxamide]", "values": [{"measurement": "α: binding cooperativity factor between CP55,940 and the tested allosteric modulator", "setting": "CB1 wild-type receptor [3]", "result": 16.55}, {"measurement": "Concentration giving complete inhibition of CP55,940-induced [35S]GTPγS binding", "setting": "CB1 wild-type receptor [5]", "result": 1, "unit": "µM"}, {"measurement": "Effect on CP55,940-induced [35S]GTPγS binding in the presence of allosteric modulator", "setting": "CB1 wild-type receptor [5]", "result": "Antagonizing"}, {"measurement": "Concentration giving complete inhibition of basal [35S]GTPγS binding", "setting": "CB1 wild-type receptor [5]; absence of orthosteric ligand, 5 μM GDP", "result": 10, "unit": "µM"}]}
{"molecule": "CCCCCc1c(C(=O)NC(CO)Cc2ccc(N(C)C)cc2)[nH]c2ccc(Cl)cc12", "note": "(centres unmarked) [11k, 5-Chloro-N-(1-(4-(dimethylamino)phenyl)-3-hydroxypropan-2-yl)-3-pentyl-1H-indole-2-carboxamide]", "values": [{"measurement": "α: binding cooperativity factor between CP55,940 and the tested allosteric modulator", "setting": "CB1 wild-type receptor [3]", "result": 13.27}]}
{"molecule": "CCc1c(C(=O)NCCc2ccc(N(C)C)cc2)[nH]c2ccc(Cl)cc12", "note": "[11l, 5-Chloro-N-(4-(dimethylamino)phenethyl)-3-ethyl-1H-indole-2-carboxamide]", "values": [{"measurement": "α: binding cooperativity factor between CP55,940 and the tested allosteric modulator", "setting": "CB1 wild-type receptor [3]", "result": 19.68}]}
{"molecule": "O=C(NCCc1ccc(N2CCCCC2)cc1)c1cc2cc(Cl)ccc2o1", "note": "[13a, 5-Chloro-N-(4-(piperidin-1-yl)phenethyl)benzofuran-2-carboxamide]", "values": [{"measurement": "α: binding cooperativity factor between CP55,940 and the tested allosteric modulator", "setting": "CB1 wild-type receptor [3]", "result": 1.0}]}
{"molecule": "CCc1c(C(=O)NCCc2ccc(N3CCCCC3)cc2)oc2ccc(Cl)cc12", "note": "[13b, 5-Chloro-3-ethyl-N-(4-(piperidin-1-yl)phenethyl)benzofuran-2-carboxamide]", "values": [{"measurement": "α: binding cooperativity factor between CP55,940 and the tested allosteric modulator", "setting": "CB1 wild-type receptor [3]", "result": 18.04}, {"measurement": "Concentration giving complete inhibition of CP55,940-induced [35S]GTPγS binding", "setting": "CB1 wild-type receptor [5]", "result": "at least 10 μM"}, {"measurement": "Effect on CP55,940-induced [35S]GTPγS binding in the presence of allosteric modulator", "setting": "CB1 wild-type receptor [5]", "result": "Antagonizing"}]}
{"molecule": "CCc1c(C(=O)NCCc2ccc(N(C)C)cc2)oc2ccc(Cl)cc12", "note": "[13c, 5-Chloro-N-(4-(dimethylamino)phenethyl)-3-ethylbenzofuran-2-carboxamide]", "values": [{"measurement": "Fold increase in KB on replacing the indole ring with a benzofuran ring", "setting": "CB1 wild-type receptor [3]; 13c versus 11l", "result": 3, "unit": "fold"}, {"measurement": "α: binding cooperativity factor between CP55,940 and the tested allosteric modulator", "setting": "CB1 wild-type receptor [3]", "result": 11.59}]}
{"molecule": "CN(C)c1ccc(CCNC(=O)c2cc3cc(Cl)ccc3o2)cc1", "note": "[13d, 5-Chloro-N-(4-(dimethylamino)phenethyl)benzofuran-2-carboxamide]", "values": [{"measurement": "α: binding cooperativity factor between CP55,940 and the tested allosteric modulator", "setting": "CB1 wild-type receptor [3]", "result": 1.0}]}
{"molecule": "CCCCCCC(C)(C)c1ccc([C@@H]2C[C@H](O)CC[C@H]2CCCO)c(O)c1", "note": "[CP55,940, 2-[(1R,2R,5R)-5-hydroxy-2-(3-hydroxypropyl)cyclohexyl]-5-(2-methyloctan-2-yl)phenol, reference compound]", "values": [{"measurement": "Emax of CP55,940-induced [35S]GTPγS binding", "setting": "CB1 wild-type receptor [5]; in the absence of allosteric modulator (11j), mean ± S.E.", "result": "113.0 ± 2.6", "unit": "fmol/mg"}]}
{"molecule": "CCc1c(C(=O)NCCc2ccc(N3CCCCC3)cc2)[nH]c2ccc(Cl)cc12", "note": "[compound 1, 5-chloro-3-ethyl-N-(4-(piperidin-1-yl)phenethyl)-1H-indole-2-carboxamide, reference compound]", "values": [{"measurement": "α: binding cooperativity factor between CP55,940 and the tested allosteric modulator", "setting": "CB1 wild-type receptor [1]", "result": 6.95}, {"measurement": "Concentration at which G protein coupling was inhibited", "setting": "CB1 wild-type receptor [2]", "result": 3.2, "unit": "µM"}, {"measurement": "Effect on CP55,940-induced [35S]GTPγS binding in the presence of allosteric modulator", "setting": "CB1 wild-type receptor [2]", "result": "Antagonizing"}]}
